The source made the active and inactive calls.
Tests used:
Escherichia coli [1] = assay: microbe, parasite or virus in culture
Tumor necrosis factor = Tumor necrosis factor (Homo sapiens, UniProt P01375); assay: analog potency on TNFa NF-kB signaling – cell-based, revised, SAR follow-up (AID 2337); assay type: functional
[2] = molecular target: Nucleotide-binding oligomerization domain-containing protein 1 (Homo sapiens, UniProt Q9Y239); assay: blockers of NOD1 pathway activity – revised, SAR follow-up (AID 2333); assay type: functional
HEK293 = assay: cells; conditions: Homo sapiens;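 note: cells exposed to compound for 14 hours overnight before viability readout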
CAAX prenyl protease 2 = CAAX prenyl protease 2 (Homo sapiens, UniProt Q9Y256); assay: inhibition of Ras-converting CAAX protease Rce1 – biochemical, yeast membranes, quenched-peptide fluorescence, cherry-pick, dose response (AID 588849)
[3] = viability loss in CEM21 cells – cell-based, CellTiter-Glo luminescence, cherry-picked, cytotoxicity control for viral fusion inhibitor project, dose response (AID 652042); assay type: functional;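 note: potency for signal decrease meaning cytotoxicity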
[4] = molecular target: Disintegrin and metalloproteinase domain-containing protein 17 (Homo sapiens, UniProt P78536); assay: inhibition of ADAM17 substrate cleavage – biochemical, quenched FRET substrate, counter-screen for ADAM10 exosite inhibitor project, dose response (AID 743253)
[5] = HIV-1 AD8 envelope cell-cell fusion blockers – cherry-pick, dose response (AID 652062); assay type: functional, cell-based;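 note: luciferase signal from cell-cell fusion driven by HIV-1 clade B AD8 Env; potency is for inhibitors of fusion seen as a drop in luminescence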
[6] = off-target signal loss in HeLa-CEM21 co-culture – HeLa F-luc CTL cells, cherry-picked, counter-screen for HIV-1 Env fusion inhibitor project, dose response (AID 652040); assay type: functional, cell-based;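 note: potency for signal decrease marking cytotoxic or nonspecific inhibition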
[7] = blockers of HIV-1 ZM109 envelope-driven cell-cell fusion – HeLa effector, CEM target cells, luciferase, cherry-pick, dose response (AID 652058); assay type: functional, cell-based;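 note: luciferase signal from HIV-1 Env mediated cell-cell fusion of effector and target cells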
[8] = blockers of HIV-1 envelope-mediated cell-cell fusion – cherry-pick, dose response (AID 652057); assay type: functional, cell-based
[9] = potency of ADAM10 substrate cleavage blockers – biochemical, QFRET, dose response (AID 743254);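 note: ADAM10 enzyme with the DM2 quenched FRET peptide as substrate; EDANS fluorescence gain as the protease cuts the substrate; inhibitor potency against ADAM10 proteolytic activity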
INS1 = assay: INS-1E survival protection against cytokine death – cell-based, luminescence, retest, dose response (AID 449756); assay type: functional; conditions: Rattus norvegicus;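 note: cell death triggered by IL-1 beta plus TNF-alpha plus IFN-gamma mixture; protective hits raise ATP signal compared with cytokine alone wells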
Escherichia coli [10] = assay: microbe, parasite or virus in culture; remark: listed apart in the source
[11] = molecular target: T1, Tyrosine-protein phosphatase non-receptor type 7 (Homo sapiens, UniProt P35236); assay type: functional
T1 sequence (P35236 whole entry): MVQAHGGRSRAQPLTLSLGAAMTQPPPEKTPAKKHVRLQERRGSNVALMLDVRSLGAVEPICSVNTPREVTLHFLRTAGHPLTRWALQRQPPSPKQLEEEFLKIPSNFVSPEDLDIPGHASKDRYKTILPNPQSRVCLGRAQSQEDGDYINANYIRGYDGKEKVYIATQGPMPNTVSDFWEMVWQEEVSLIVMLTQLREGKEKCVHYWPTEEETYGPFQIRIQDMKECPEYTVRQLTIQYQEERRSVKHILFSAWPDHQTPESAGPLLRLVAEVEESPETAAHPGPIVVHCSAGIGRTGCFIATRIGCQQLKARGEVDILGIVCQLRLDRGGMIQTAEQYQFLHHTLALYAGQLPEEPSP

[12] = molecular target: T2, Dual specificity protein phosphatase 6 (Rattus norvegicus, UniProt Q64346); assay type: functional
T2 sequence (Q64346 whole entry): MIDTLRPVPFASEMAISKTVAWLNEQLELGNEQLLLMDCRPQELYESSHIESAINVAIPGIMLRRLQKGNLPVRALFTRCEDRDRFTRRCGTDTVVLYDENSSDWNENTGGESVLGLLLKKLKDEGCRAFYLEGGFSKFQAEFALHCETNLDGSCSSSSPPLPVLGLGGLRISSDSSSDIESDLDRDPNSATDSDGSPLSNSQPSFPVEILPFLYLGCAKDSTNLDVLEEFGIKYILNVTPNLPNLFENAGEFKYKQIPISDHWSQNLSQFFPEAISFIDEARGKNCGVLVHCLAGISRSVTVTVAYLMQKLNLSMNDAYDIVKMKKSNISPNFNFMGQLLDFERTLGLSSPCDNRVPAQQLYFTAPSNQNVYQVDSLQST

[13] = molecular target: T2, Dual specificity protein phosphatase 6
[14] = molecular target: Glyceraldehyde-3-phosphate dehydrogenase (Homo sapiens, UniProt P04406)
Jurkat = assay: blockers of NF-kB activation in T cells – Jurkat, luciferase reporter, luminescence, B- and T-cell, dose response (AID 489004); assay type: functional, cell-based; conditions: Homo sapiens;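 note: NF-kB luciferase reporter Jurkat cells stimulated with PMA plus ionomycin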
cells = assay type: functional, cell-based; conditions: HEK-CNG
[15] = HEK-293T viability loss, compound-treated – cell-based, uHTS hits, cytotoxicity control for B/T-cell NF-kB inhibitor project, dose response (AID 489019); assay type: functional;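 note: IC50 reflects cytotoxicity as loss of cell viability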
Galanin receptor type 3 = Galanin receptor type 3 (Homo sapiens, UniProt O60755); assay: Fluorescence-based cell-based primary high throughput dose response assay to identify antagonists of the Galanin Receptor 3 (GalR3).; assay type: functional
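Throughout, for EC50: target is galanin receptor GalR3 read with a cAMP biosensor in HEK293 cells.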

Tumor necrosis factor, sequence (P01375 whole entry, the tested form may be a part): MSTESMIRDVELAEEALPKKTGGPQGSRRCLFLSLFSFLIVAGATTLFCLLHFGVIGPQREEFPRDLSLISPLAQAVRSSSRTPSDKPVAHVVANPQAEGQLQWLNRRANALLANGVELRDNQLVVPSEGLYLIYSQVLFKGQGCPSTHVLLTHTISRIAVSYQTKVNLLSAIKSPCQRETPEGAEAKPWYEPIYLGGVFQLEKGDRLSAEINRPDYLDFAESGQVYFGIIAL
Nucleotide-binding oligomerization domain-containing protein 1, sequence (Q9Y239 whole entry, the tested form may be a part): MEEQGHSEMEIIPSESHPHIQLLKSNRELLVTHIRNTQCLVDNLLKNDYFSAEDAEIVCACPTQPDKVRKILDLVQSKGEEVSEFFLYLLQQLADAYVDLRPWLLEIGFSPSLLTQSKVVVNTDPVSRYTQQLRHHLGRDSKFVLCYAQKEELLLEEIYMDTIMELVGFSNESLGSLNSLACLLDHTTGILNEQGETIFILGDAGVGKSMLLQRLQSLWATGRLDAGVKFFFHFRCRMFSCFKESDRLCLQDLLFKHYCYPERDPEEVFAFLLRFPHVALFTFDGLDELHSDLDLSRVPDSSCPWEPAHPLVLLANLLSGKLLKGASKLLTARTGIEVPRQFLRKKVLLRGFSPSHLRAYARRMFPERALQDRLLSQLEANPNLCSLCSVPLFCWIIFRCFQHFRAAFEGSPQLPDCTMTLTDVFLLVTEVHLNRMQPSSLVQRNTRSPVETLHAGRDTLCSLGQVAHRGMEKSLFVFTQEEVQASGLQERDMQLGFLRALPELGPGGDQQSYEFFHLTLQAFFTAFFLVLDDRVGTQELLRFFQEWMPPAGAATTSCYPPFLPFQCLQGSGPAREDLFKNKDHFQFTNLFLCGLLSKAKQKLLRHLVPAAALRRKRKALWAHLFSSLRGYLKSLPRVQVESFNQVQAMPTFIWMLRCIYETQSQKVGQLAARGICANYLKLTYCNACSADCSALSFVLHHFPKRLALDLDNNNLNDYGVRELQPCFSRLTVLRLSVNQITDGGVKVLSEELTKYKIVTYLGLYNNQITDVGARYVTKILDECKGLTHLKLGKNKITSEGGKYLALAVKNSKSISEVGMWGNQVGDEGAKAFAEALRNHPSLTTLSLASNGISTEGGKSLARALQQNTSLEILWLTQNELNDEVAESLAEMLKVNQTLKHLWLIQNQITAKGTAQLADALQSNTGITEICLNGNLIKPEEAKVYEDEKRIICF
Glyceraldehyde-3-phosphate dehydrogenase, sequence (P04406 whole entry): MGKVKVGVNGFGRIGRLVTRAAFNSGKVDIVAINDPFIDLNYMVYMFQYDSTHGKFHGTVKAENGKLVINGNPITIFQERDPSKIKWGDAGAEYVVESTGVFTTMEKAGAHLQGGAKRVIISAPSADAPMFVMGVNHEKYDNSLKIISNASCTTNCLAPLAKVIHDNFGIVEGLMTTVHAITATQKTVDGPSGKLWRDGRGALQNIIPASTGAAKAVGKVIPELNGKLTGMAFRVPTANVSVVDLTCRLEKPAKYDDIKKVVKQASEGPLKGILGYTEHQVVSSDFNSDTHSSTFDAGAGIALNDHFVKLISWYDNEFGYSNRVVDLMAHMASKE
Disintegrin and metalloproteinase domain-containing protein 17, sequence (P78536 whole entry, the tested form may be a part): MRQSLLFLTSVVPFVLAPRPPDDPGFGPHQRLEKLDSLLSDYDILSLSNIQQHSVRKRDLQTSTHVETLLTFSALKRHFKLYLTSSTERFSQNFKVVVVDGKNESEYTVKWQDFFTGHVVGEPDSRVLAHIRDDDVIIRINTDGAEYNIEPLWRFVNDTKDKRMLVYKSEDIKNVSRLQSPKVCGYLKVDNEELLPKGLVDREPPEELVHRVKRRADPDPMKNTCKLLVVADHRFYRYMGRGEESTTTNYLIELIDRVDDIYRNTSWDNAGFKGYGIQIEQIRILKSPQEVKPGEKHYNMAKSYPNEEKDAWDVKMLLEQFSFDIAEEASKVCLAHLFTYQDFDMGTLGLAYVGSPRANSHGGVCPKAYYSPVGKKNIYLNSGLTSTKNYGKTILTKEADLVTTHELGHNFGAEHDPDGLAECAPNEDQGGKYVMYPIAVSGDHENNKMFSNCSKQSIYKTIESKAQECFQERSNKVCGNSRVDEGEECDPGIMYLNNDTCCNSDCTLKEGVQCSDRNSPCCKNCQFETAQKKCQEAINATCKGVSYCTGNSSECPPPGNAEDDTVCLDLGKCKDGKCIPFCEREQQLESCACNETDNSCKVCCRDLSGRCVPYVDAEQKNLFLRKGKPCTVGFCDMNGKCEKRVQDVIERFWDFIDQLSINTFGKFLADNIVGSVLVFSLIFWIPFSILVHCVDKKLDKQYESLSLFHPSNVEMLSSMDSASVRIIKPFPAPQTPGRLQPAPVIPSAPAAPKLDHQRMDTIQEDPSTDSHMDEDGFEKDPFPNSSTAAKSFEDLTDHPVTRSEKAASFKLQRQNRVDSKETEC
CAAX prenyl protease 2, sequence (Q9Y256 whole entry, the tested form may be a part): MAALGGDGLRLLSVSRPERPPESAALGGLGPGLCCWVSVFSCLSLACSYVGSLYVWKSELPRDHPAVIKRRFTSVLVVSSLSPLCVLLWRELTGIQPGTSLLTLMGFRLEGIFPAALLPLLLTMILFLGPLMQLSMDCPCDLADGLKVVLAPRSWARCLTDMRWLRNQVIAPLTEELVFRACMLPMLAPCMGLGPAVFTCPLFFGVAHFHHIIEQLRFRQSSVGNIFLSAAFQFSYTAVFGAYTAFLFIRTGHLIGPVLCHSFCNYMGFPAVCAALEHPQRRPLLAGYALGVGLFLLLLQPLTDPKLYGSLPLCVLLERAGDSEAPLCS
Galanin receptor type 3, sequence (O60755 whole entry): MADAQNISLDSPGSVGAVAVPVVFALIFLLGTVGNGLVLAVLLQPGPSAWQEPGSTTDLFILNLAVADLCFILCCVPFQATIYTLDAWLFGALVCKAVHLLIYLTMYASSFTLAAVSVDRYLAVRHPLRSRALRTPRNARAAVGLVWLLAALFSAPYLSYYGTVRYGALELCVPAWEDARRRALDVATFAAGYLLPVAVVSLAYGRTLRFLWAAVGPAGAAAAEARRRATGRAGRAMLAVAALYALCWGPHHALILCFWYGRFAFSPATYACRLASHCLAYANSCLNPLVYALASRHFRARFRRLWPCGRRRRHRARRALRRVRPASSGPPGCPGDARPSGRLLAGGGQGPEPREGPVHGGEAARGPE

**Q.** With `CO[C@H]1/C=C\O[C@@]2(C)Oc3c(C)c(O)c4c(O)c(c5c(c4c3C2=O)=NC2(CCN(CC(C)C)CC2)N=5)NC(=O)/C(C)=C\C=C/[C@H](C)[C@H](O)[C@@H](C)[C@@H](O)[C@@H](C)[C@H](OC(C)=O)[C@@H]1C` as the molecule, how does the AC50 (Escherichia coli [1]) read?
**A.** Its AC50 is 15.9 µM (active).

**Q.** Which IC50 (Tumor necrosis factor) does the source give for `O=C(CSc1nc(O)c2c(-c3ccccc3)csc2n1)NC1CCCCC1` here?
**A.** Its IC50 is > 20 µM (inactive).

**Q.** What about the IC50 [2] of the same molecule?
**A.** Its IC50 is > 20 µM (inactive).

**Q.** And the IC50 (HEK293)?
**A.** The IC50 was > 20 µM (inactive).

**Q.** Which results are given for `COc1ccccc1NC(=O)CN(c1ccc(C23CC4CC(CC(C4)C2)C3)cc1)S(C)(=O)=O`?
**A.** AC50 (CAAX prenyl protease 2): 40.9 µM (active); AC50 [3]: 47 µM (active); IC50 [4]: > 69.5 µM (inactive); AC50 [5]: 8.59 µM (active); AC50 [6]: 8.12 µM (active); AC50 [7]: 3.45 µM (active); AC50 [8]: 4.53 µM (active); IC50 [9]: > 69.5 µM (inactive); AC50 (INS1): 4.49 µM (active)

**Q.** Which results are given for `CCOC(=O)C(NC(C)=O)(Nc1ccc(F)cc1)C(F)(F)F` (centres undefined)?
**A.** AC50 (Escherichia coli [10]): 36.2 µM (active); AC50 (Escherichia coli [1]): 74.8 µM (active)

**Q.** Which AC50 (Escherichia coli [10]) does the source give for `Cn1ncc(Cl)c1C(=O)NCc1ccc(Cl)cc1` here?
**A.** The AC50 was 22.7 µM (active).

**Q.** For `COc1ccc(-n2c(=O)nc(NCCc3cccc(Cl)c3)[nH]c2=O)cc1`, which IC50 [11] is on record?
**A.** The IC50 was > 100 µM (not active).

**Q.** What about the IC50 [12] of the same molecule?
**A.** The IC50 was > 100 µM (inactive).

**Q.** What about the IC50 [13] of the same molecule?
**A.** The IC50 was > 100 µM (inactive).

**Q.** And the IC50 [14]?
**A.** Its IC50 is > 100 µM (not active).

**Q.** Which IC50 (Jurkat) does the source give for `COc1cc2c(cc1OC)[C@@H]1C(=O)c3ccc4c(c3O[C@@H]1CO2)C[C@H](C(C)C)O4` here?
**A.** The IC50 was > 80 µM (inactive).

**Q.** What about the EC50 (cells) of the same molecule?
**A.** Its EC50 is > 29.9 µM (inactive).

**Q.** And the IC50 [15]?
**A.** Its IC50 is > 80 µM (inactive).

**Q.** And the IC50 (Galanin receptor type 3)?
**A.** The IC50 was 0.0154 µM (active).

Source: ChEMBL document CHEMBL1201862, “PubChem BioAssay data set” (2004)
